# Numbered stars: 1 amine (or outer) side, 2 acyl side, 3 side chain; on linkers, the order of the positions; unused ones are H or OH. Bridge positions count the residues as written; N and C are the ends. Square brackets hold non-standard residues; d marks the D form. Peptide text beside a SMILES is read from it. * marks the point of attachment. X1 = O=C(O)c1cc(NC(=S)*)ccc1-c1c2ccc(=O)cc-2oc2cc(O)ccc12; X4 = [N-]=[N+]=NCC(=O)Nc1ccc(N*)cc1; Dap = NC[C@H](N)C(=O)O; X3 = O=C(C[*:2])[*:1]; X2 = Oc1ccc(N*)cc1; βAla = NCCC(=O)O
# How the values were obtained:
# [1] = tested on: human IgG Fc; test: Peptide-driven acetylation (labelling) of human IgG Fc, SDS-PAGE in-gel fluorescence / MALDI-TOF MS; assay type: biochemical; conditions: for yield of the labeled Fc: MS peak area after Glu-C digestion (F11: in-gel fluorescence, ImageJ)
# Method: (§1) FIG. 2A-2C Kinetic details of the acetylation reaction and hydrolysis of F1. (FIG. 2A) Reactions at different peptide-to-IgG Fc ratios. Reactions were performed in PBS buffer (pH 7.4) at 37° C. for 1 h. Protein loading in each lane is 2 μg. (FIG. 2B) Reaction kinetics. Reaction condition: 4 μM IgG Fc, 24 μM F1, PBS buffer (pH 7.4), at 37° C. The reactions were quenched with 1% SDS at different time points. After conducting an SPAAC reaction with DBCO-PEG4-TAMRA, the reactions were denatured and resolved by SDS-PAGE. Product conversion was quantified based on band-shift in the SDS-PAGE image. (FIG. 2C) Hydrolysis of peptide ester (24 μM) monitored by HPLC in pH 7.4 PBS buffer at 37° C.
# FIG. 27A-27B The study of IgG Fc acetylation reaction with different payloads. (FIG. 27A) A set of reactive peptides with different acyl groups tested for labeling efficiency. (FIG. 27B) The yields of IgG Fc labeled by peptides at 37° C. Reaction condition: 4 μM IgG Fc, 24 μM peptide, in PBS buffer (pH 7.4) for 2 h or in borate buffer (pH 8.5) for 15 h, respectively. […] The yields were quantified by MS analysis with in-solution Glu-C digestion of modified Fc or by in-gel fluorescent image (FIGS. 27A-27B, […]).
# (§2) IgG or IgG Fc labelling reactions. Unless otherwise noted, the final concentrations of proteins were 4 μM and peptides were 24 μM. The conjugation reactions were performed in PBS buffer (pH 7.4, 137 mM NaCl, 2.7 mM KCl, 10 mM Na2HPO4, 1.8 mM KH2PO4) at 37° C. for 1 h and stopped by 1% SDS. For copper-free click chemistry, the protein-peptide reaction mixture was first incubated with 100 uM DBCO-TAMRA at room temperature for 2 h and then denatured in the presence of loading dye. After resolved by SDS-PAGE, the gel was first observed in the fluorescence channel, and then stained with Coomassie Brilliant Blue dye.
# Characterization of IgG or IgG Fc modification by MALDI-TOF MS. To characterize Fc region, 5 μg protein sample was used. Firstly, Fc was treated in the presence of TCEP (20 mM) at 60° C. for 10 min. Then, the sample was acidified with TFA at a pH of <4. After prewetting, C4 ZipTip was equilibrated with water (0.1% TFA). Binding of Fc was realized by aspirating and dispensing sample 7 to 10 cycles. The tip was next washed 3 times and eluted by 5 μL 70% acetonitrile/water solution with 0.1% TFA. Now the sample was ready for MALDI-TOF MS analysis. For characterization of modified Fc region, the reaction was first quenched by acidification (For acid labile antibodies, the peptide f-F0 could be used to quench the reaction.). After coupling with DBCO-TAMRA, the sample was reduced. Then, the sample was desalted and concentrated by using the same procedure. […] Next the sample was purified by HPLC with C4 column, and peaks were collected and lyophilized. The sample was dissolved in 50% acetonitrile/water solution with 0.1% TFA and subjected to MALDI-TOF MS analysis.
# [2] = biological target: T1, atezolizumab (Homo sapiens, UniProt P01857, D239E/L241M/N180A); test: biochemical
# Description: Ligand-induced fluorescence change was used to determine the Kd value. (FIG. 13A) Dose response curve. (FIG. 13B) Capillary scans. (FIG. 13C) MST traces.
# Ligand-induced fluorescence change was used to determine the Kd value. (FIG. 14A) Dose response curve. (FIG. 14B) Capillary scans. (FIG. 14C) MST traces.
# Ligand-induced fluorescence change was used to determine the Kd value. (FIG. 15A) Dose response curve. (FIG. 15B) Capillary scans. (FIG. 15C) MST traces.
# Microscale thermophoresis (MST) binding experiments. […] The measurements were performed in phosphate buffered saline supplemented with 0.05% Tween-20 (PBS-T). […] The measurements were performed on a NanoTemper Technologies Monolith NT.115 instrument. The settings of MST power was medium and LED power was Auto-detect.
# [3] = Hydrolysis of peptide ester monitored by HPLC; assay type: physicochemical
# Method: as §1
# [4] = tested on: rabbit IgG; test: Target selectivity of peptide-driven acetylation towards IgG from different species (rabbit); assay type: biochemical; conditions: 4 μM protein, 24 μM F1, PBS pH 7.4, 37° C., 1 h
# Method: (§3) FIG. 10 Target selectivity of peptide-driven acetylation towards IgG from different species. Reaction condition: 4 μM protein, 24 μM F1, PBS buffer (pH 7.4), at 37° C. for 1 h. The reactions were quenched with 1% SDS and DBCO-TAMRA was added at room temperature for 1.5 h for copper-free click chemistry. […] Each lane contains […] of antibodies.
# as §2
# [5] = tested on: IgG Fc in a protein mixture of HeLa cell lysate; conditions: Fc-spiked HeLa cell lysate, RIPA lysis buffer pH 7.4, 37° C., 1 h, 6-fold excess of peptide
# Method: Fc protein was spiked to a mixture of proteins from HeLa cell lysate, and the F1 peptide was added to the lysate to initiate acetylation reaction. […] Reactions were performed in pH 7.4 RIPA lysis buffer at 37° C. for 1 h with a 6-fold excess of peptides, followed by copper-free click chemistry with DBCO-TAMRA. Then the reactions were analyzed by denaturing SDS-PAGE and imaged using in-gel fluorescence scanning and Coomassie blue staining.
# [6] = tested on: IgG Fc from mice; test: Target selectivity of peptide-driven acetylation towards IgG from different species (mouse); assay type: biochemical; conditions: 4 μM protein, 24 μM F1, PBS pH 7.4, 37° C., 1 h
# Method: as §3, §2
# [7] = biological target: T1, atezolizumab; test: Acetylation of atezolizumab by peptide F1, MALDI-TOF MS / SDS-PAGE; assay type: biochemical; design: purchased SelleckChem A2004; conditions: for heavy chain modified: 4 μM Atezo, 24 μM F1, PBS pH 7.4, 37° C., MALDI-TOF MS
# Method: (FIG. 4A) Acetylation reaction monitored by SDS-PAGE and fluorescent scanning. Reaction condition: 4 μM Atezo, 24 μM F1, PBS buffer (pH 7.4), at 37° C. for 1 h. The reactions were quenched with 1% SDS and DBCO-TAMRA was added at room temperature for 1.5 h for SPAAC reaction before SDS-PAGE and in-gel fluorescent imaging. […] (FIG. 4C) In-gel digestion for MALDI-TOF MS analysis to identify the acetylation site. Modified Lys 248 was marked in red. L chain: light chain, H chain: heavy chain, M-H chain: modified heavy chain, Atezo: atezolizumab.
# as §2
# Characterization of IgG or IgG Fc modification by MALDI-TOF MS. To characterize Fc region, 5 μg protein sample was used. Firstly, Fc was treated in the presence of TCEP (20 mM) at 60° C. for 10 min. Then, the sample was acidified with TFA at a pH of <4. After prewetting, C4 ZipTip was equilibrated with water (0.1% TFA). Binding of Fc was realized by aspirating and dispensing sample 7 to 10 cycles. The tip was next washed 3 times and eluted by 5 μL 70% acetonitrile/water solution with 0.1% TFA. Now the sample was ready for MALDI-TOF MS analysis. For characterization of modified Fc region, the reaction was first quenched by acidification (For acid labile antibodies, the peptide f-F0 could be used to quench the reaction.). After coupling with DBCO-TAMRA, the sample was reduced. Then, the sample was desalted and concentrated by using the same procedure. […]
# [8] = 4 μM IgG Fc, 24 μM peptide, 37° C., PBS buffer (pH 7.4) for 2 h
# [9] = 4 μM IgG Fc, 24 μM peptide, 37° C., borate buffer (pH 8.5) for 15 h
# T1 sequence (P01857 whole entry N180A/D239E/L241M, looked up, other chains not shown): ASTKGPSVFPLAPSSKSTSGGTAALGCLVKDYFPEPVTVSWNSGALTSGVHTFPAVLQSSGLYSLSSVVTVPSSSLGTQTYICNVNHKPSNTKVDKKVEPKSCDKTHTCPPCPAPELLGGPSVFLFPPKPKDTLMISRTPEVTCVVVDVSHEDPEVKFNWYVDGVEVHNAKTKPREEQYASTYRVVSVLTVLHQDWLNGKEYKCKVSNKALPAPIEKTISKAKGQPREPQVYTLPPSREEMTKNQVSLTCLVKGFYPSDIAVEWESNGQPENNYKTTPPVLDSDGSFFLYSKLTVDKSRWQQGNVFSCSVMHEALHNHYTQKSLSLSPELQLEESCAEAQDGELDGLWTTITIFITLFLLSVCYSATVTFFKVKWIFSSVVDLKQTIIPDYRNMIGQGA
compound,measurement,setting,value
CC(=O)N[C@@H](CC(=O)O)C(=O)N[C@H]1CNC(=O)CSC[C@@H](C(=O)N[C@H](C(N)=O)[C@@H](C)O)NC(=O)[C@H](Cc2c[nH]c3ccccc23)NC(=O)[C@H](C(C)C)NC(=O)[C@H](CC(C)C)NC(=O)[C@H](CCC(=O)Nc2ccc(OC(C)=O)cc2)NC(=O)CNC(=O)[C@H](CC(C)C)NC(=O)[C@H](Cc2c[nH]cn2)NC(=O)[C@H](Cc2c[nH]c3ccccc23)NC(=O)[C@H](C)NC1=O [F7],yield of the labeled Fc,[1]; [8],about 41%
same,yield of the labeled Fc,[1]; [9],90%
CC(C)C[C@@H]1NC(=O)[C@H](Cc2c[nH]cn2)NC(=O)[C@H](Cc2c[nH]c3ccccc23)NC(=O)[C@H](C)NC(=O)[C@@H](NC(=O)[C@H](CC(=O)O)NC(=O)CCNC(=O)CNC(=S)Nc2ccc(-c3c4ccc(=O)cc-4oc4cc(O)ccc34)c(C(=O)O)c2)CNC(=O)CSC[C@@H](C(=O)N[C@H](C(N)=O)[C@@H](C)O)NC(=O)[C@H](Cc2c[nH]c3ccccc23)NC(=O)[C@H](C(C)C)NC(=O)[C@H](CC(C)C)NC(=O)[C@H](CCC(=O)Nc2ccc(NC(=O)CN=[N+]=[N-])cc2)NC(=O)CNC1=O [f-F5] (X1-G[βAla]D[Dap]AWHLGE(X4)LVWCT-NH2; linker 4-14 via X3),Kd,[2],2000 nM
CC(=O)N[C@@H](CC(=O)O)C(=O)N[C@H]1CNC(=O)CSC[C@@H](C(=O)N[C@H](C(N)=O)[C@@H](C)O)NC(=O)[C@H](Cc2c[nH]c3ccccc23)NC(=O)[C@H](C(C)C)NC(=O)[C@H](CC(C)C)NC(=O)C(CCC(=O)Nc2ccc(OC(=O)CCCC[C@@H]3SC[C@@H]4NC(=O)N[C@@H]43)cc2)NC(=O)CNC(=O)[C@H](CC(C)C)NC(=O)[C@H](Cc2c[nH]cn2)NC(=O)[C@H](Cc2c[nH]c3ccccc23)NC(=O)[C@H](C)NC1=O (some centres unmarked) [F9],yield of the labeled Fc,[1]; [8],about 18%
same,yield of the labeled Fc,[1]; [9],73%
CC(=O)N[C@@H](CC(=O)O)C(=O)N[C@H]1CNC(=O)CSC[C@@H](C(=O)N[C@H](C(N)=O)[C@@H](C)O)NC(=O)[C@H](Cc2c[nH]c3ccccc23)NC(=O)[C@H](C(C)C)NC(=O)[C@H](CC(C)C)NC(=O)[C@H](CCC(=O)Nc2ccc(OC(=O)CN=[N+]=[N-])cc2)NC(=O)CNC(=O)[C@H](CC(C)C)NC(=O)[C@H](Cc2c[nH]cn2)NC(=O)[C@H](Cc2c[nH]c3ccccc23)NC(=O)[C@H](C)NC1=O [F1],stability of peptide,[3]; basic condition (pH 8.5),extremely unstable at basic condition
same,peptide ester lost by hydrolysis,"[3]; in 1 h at pH 7.4, PBS, 37° C., 24 μM, absence of IgGs",about 70%
same,time to 50% completion of the acetylation reaction,"[1]; 4 μM IgG Fc, 24 μM F1, PBS buffer pH 7.4, 37° C.",less than 30 min
same,acetylation reaction conversion within 1 h,"[1]; IgG Fc 2 μM to 20 μM, F1:IgG Fc ratio 6:1, PBS pH 7.4, 37° C.",> 50%
same,reactivity with IgG Fc by species,"[1]; human, 4 μM protein, 24 μM F1, PBS pH 7.4, 37° C., 1 h",only reacted with human and rabbit IgG Fcs
same,reactivity with IgG Fc by species,[4],only reacted with human and rabbit IgG Fcs
same,selectivity of acetylation in a complex protein mixture,[5],selectively acetylate IgG Fc in a protein mixture of HeLa cell lysate without an appreciable level of background reactions
same,reactivity with IgG Fc by species,[6],not the IgG Fc from mice
same,chain selectivity of acetylation,[7]; 37° C. for 1 h,acetylated the heavy chain only
same,heavy chain modified,[7]; in 15 minutes,~50%
same,heavy chain modified,[7]; in 1 h,~80%
CC(=O)N[C@@H](CC(=O)O)C(=O)N[C@H]1CNC(=O)CSC[C@@H](C(=O)N[C@H](C(N)=O)[C@@H](C)O)NC(=O)[C@H](Cc2c[nH]c3ccccc23)NC(=O)[C@H](C(C)C)NC(=O)[C@H](CC(C)C)NC(=O)[C@H](CCC(=O)Nc2ccc(OC(=O)c3ccc(C(=O)c4ccccc4)cc3)cc2)NC(=O)CNC(=O)[C@H](CC(C)C)NC(=O)[C@H](Cc2c[nH]cn2)NC(=O)[C@H](Cc2c[nH]c3ccccc23)NC(=O)[C@H](C)NC1=O [F10],yield of the labeled Fc,[1]; [8],about 5%
same,mass shift of Fc after reaction (MALDI-TOF MS),"[1]; 4 μM IgG Fc, 24 μM peptide, 37° C., PBS pH 7.4 2 h or borate pH 8.5 15 h",No obvious mass shift was observed
same,yield of the labeled Fc,[1]; [9],26%
CC(=O)N[C@@H](CC(=O)O)C(=O)N[C@H]1CNC(=O)CSC[C@@H](C(=O)N[C@H](C(N)=O)[C@@H](C)O)NC(=O)[C@H](Cc2c[nH]c3ccccc23)NC(=O)[C@H](C(C)C)NC(=O)[C@H](CC(C)C)NC(=O)C(CCC(=O)Nc2cccc(OC(=O)CN=[N+]=[N-])c2)NC(=O)CNC(=O)[C@H](CC(C)C)NC(=O)[C@H](Cc2c[nH]cn2)NC(=O)[C@H](Cc2c[nH]c3ccccc23)NC(=O)[C@H](C)NC1=O (some centres unmarked) [F6],acetylation yield compared with F1,[1]; 3-aminophenol linker instead of 4-aminophenol,markedly decreased the acetylation yield
C#CCCC(=O)Oc1ccc(NC(=O)CC[C@@H]2NC(=O)CNC(=O)[C@H](CC(C)C)NC(=O)[C@H](Cc3c[nH]cn3)NC(=O)[C@H](Cc3c[nH]c4ccccc34)NC(=O)[C@H](C)NC(=O)[C@@H](NC(=O)[C@H](CC(=O)O)NC(C)=O)CNC(=O)CSC[C@@H](C(=O)N[C@H](C(N)=O)[C@@H](C)O)NC(=O)[C@H](Cc3c[nH]c4ccccc34)NC(=O)[C@H](C(C)C)NC(=O)[C@H](CC(C)C)NC2=O)cc1 [F8],yield of the labeled Fc,[1]; [8],about 17%
same,yield of the labeled Fc,[1]; [9],84%
CC(C)C[C@@H]1NC(=O)[C@H](Cc2c[nH]cn2)NC(=O)[C@H](Cc2c[nH]c3ccccc23)NC(=O)[C@H](C)NC(=O)[C@@H](NC(=O)[C@H](CC(=O)O)NC(=O)CCNC(=O)CNC(=S)Nc2ccc(-c3c4ccc(=O)cc-4oc4cc(O)ccc34)c(C(=O)O)c2)CNC(=O)CSC[C@@H](C(=O)N[C@H](C(N)=O)[C@@H](C)O)NC(=O)[C@H](Cc2c[nH]c3ccccc23)NC(=O)[C@H](C(C)C)NC(=O)[C@H](CC(C)C)NC(=O)[C@H](CCC(=O)Nc2ccc(O)cc2)NC(=O)CNC1=O [f-F4] (X1-G[βAla]D[Dap]AWHLGE(X2)LVWCT-NH2; linker 4-14 via X3),Kd,[2],1500 nM

# Source: patent US20240024504A1, “SITE-SELECTIVE LYSINE ACETYLATION OF HUMAN IMMUNOGLOBULIN G AND IgG-RELATED PRODUCTS FOR IMMUNOTHERAPY” (The Chinese University of Hong Kong, priority 2022, published 2024)
